What was measured:
BT-474 = assay: normalised viability (% of control), CellTiter-Blue; higher = more viable cells (about 100 = DMSO control); settings: incubation time: 72 h
Outline: (§1)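 Vehicle (100) and a positive kill control (0) anchored the normalisation of each plate, and Z'-factor was used for quality control. Breast cancer cell lines in 20 µl suspension were incubated 72 h over compound in 5 µl medium in 384-well plates, followed by CellTiter-Blue at 560/590 nm. The value is normalised viability at a single listed concentration of the series.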

CAL-85-1 [1] = assay: as above; settings: incubation time: 72 h
Outline: as §1

HCC1143 [2] = assay: as above; settings: incubation time: 72 h
Outline: as §1

SK-BR-3 = assay: as above; settings: incubation time: 72 h
Outline: as §1

CAL-51 [3] = assay: as above; settings: incubation time: 72 h
Outline: as §1

MDA-MB-231 = assay: as above; settings: incubation time: 72 h
Outline: as §1

MDA-MB-468 = assay: as above; settings: incubation time: 72 h
Outline: as §1

BT-549 = assay: as above; settings: incubation time: 72 h
Outline: as §1

HCC1937 = assay: as above; settings: incubation time: 72 h
Outline: as §1

HCC1599 [4] = assay: as above; settings: incubation time: 72 h
Outline: as §1

HDQ-P1 [5] = assay: as above; settings: incubation time: 72 h
Outline: as §1

DU-4475 [6] = assay: normalised viability (% of control), CellTiter-Blue; higher = more viable cells (about 100 = DMSO control); settings: 3000 nM; incubation time: 72 h
Experimental: (§2)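 DSRT, CellTiter-Blue viability, 72 h incubation. Signal is normalised to DMSO and benzethonium chloride controls. Value is the normalised response at dose 8.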

CAL-85-1 [7] = assay: as above; settings: 3000 nM; incubation time: 72 h
Experimental: as §2

CAL-148 = assay: as above; settings: 3000 nM; incubation time: 72 h
Experimental: as §2

CAL-51 [8] = assay: as above; settings: 3000 nM; incubation time: 72 h
Experimental: as §2

HDQ-P1 [9] = assay: as above; settings: 3000 nM; incubation time: 72 h
Experimental: as §2

MDA-MB-453 [10] = assay: as above; settings: 3000 nM; incubation time: 72 h
Experimental: as §2

DU-4475 [11] = assay: drug sensitivity score (DSS), CellTiter-Glo (DSS (AUC-based score)); higher = stronger drug effect (viability inhibition or cytotoxicity); extreme values may be limits of the assay; settings: incubation time: 72 h
Outline: (§3)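 A drug sensitivity score was derived from the area under each fitted dose-response curve. Breast cancer cells (20 µl suspension) were seeded onto compound in 384-well plates, using 5 concentrations 10-fold apart over a compound-specific 10,000-fold range, and incubated 72 h. Readouts were CellTox Green fluorescence and then CellTiter-Glo luminescence, with every plate normalised to 0.1 % DMSO and a positive kill control.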

HCC1143 [12] = assay: as above; settings: incubation time: 72 h
Outline: as §3

MFM-223 = assay: as above; settings: incubation time: 72 h
Outline: as §3

MCF-10A = assay: as above; settings: incubation time: 72 h
Outline: as §3

MDA-MB-436 = assay: as above; settings: incubation time: 72 h
Outline: as §3

HCC1599 [13] = assay: as above; settings: incubation time: 72 h
Outline: as §3

HDQ-P1 [14] = assay: as above; settings: incubation time: 72 h
Outline: as §3

MDA-MB-453 [15] = assay: as above; settings: incubation time: 72 h
Outline: as §3

C[C@H]1C[C@@H]2[C@H]([C@@H](O)C[C@@]3(C)[C@H]2CC[C@]3(O)C(=O)CO)[C@@]2(C)C=CC(=O)C=C12 [Methylprednisolone]
normalised viability (BT-474; 10 nM): 121% | normalised viability (BT-474; 1000 nM): 105% | normalised viability (BT-474; 10000 nM): 112% | normalised viability (CAL-85-1 [1]; 3 nM): 87.6% | normalised viability (CAL-85-1 [1]; 30 nM): 102% | normalised viability (CAL-85-1 [1]; 100 nM): 109% | normalised viability (HCC1143 [2]; 10 nM): 89.8% | normalised viability (HCC1143 [2]; 1000 nM): 111% | normalised viability (HCC1143 [2]; 10000 nM): 92.5% | normalised viability (SK-BR-3; 10 nM): 107% | normalised viability (SK-BR-3; 1000 nM): 97.6% | normalised viability (SK-BR-3; 10000 nM): 91.4% | normalised viability (CAL-51 [3]; 3 nM): 100% | normalised viability (CAL-51 [3]; 30 nM): 100% | normalised viability (CAL-51 [3]; 100 nM): 98.2% | normalised viability (MDA-MB-231; 10 nM): 104% | normalised viability (MDA-MB-231; 1000 nM): 114% | normalised viability (MDA-MB-231; 10000 nM): 119% | normalised viability (MDA-MB-468; 10 nM): 92.7% | normalised viability (MDA-MB-468; 1000 nM): 117% | normalised viability (MDA-MB-468; 10000 nM): 88.2% | normalised viability (BT-549; 10 nM): 89.4% | normalised viability (BT-549; 1000 nM): 77.8% | normalised viability (BT-549; 10000 nM): 78.4% | normalised viability (HCC1937; 10 nM): 80.2% | normalised viability (HCC1937; 1000 nM): 106% | normalised viability (HCC1937; 10000 nM): 80.4% | normalised viability (HCC1599 [4]; 10 nM): 105% | normalised viability (HCC1599 [4]; 1000 nM): 102% | normalised viability (HCC1599 [4]; 10000 nM): 92.5% | normalised viability (HDQ-P1 [5]; 3 nM): 108% | normalised viability (HDQ-P1 [5]; 30 nM): 103% | normalised viability (HDQ-P1 [5]; 100 nM): 122% | normalised viability (DU-4475 [6]): 97.9% | normalised viability (CAL-85-1 [7]): 101% | normalised viability (CAL-148): 96.8% | normalised viability (CAL-51 [8]): 105% | normalised viability (HDQ-P1 [9]): 105% | normalised viability (MDA-MB-453 [10]): 74.1% | drug sensitivity score (DU-4475 [11]): 0 | drug sensitivity score (HCC1143 [12]): 0 | drug sensitivity score (MFM-223): 0 | drug sensitivity score (MCF-10A): 0 | drug sensitivity score (MDA-MB-436): 0 | drug sensitivity score (HCC1599 [13]): 0 | drug sensitivity score (HDQ-P1 [14]): 1.31 | drug sensitivity score (MDA-MB-453 [15]): 0

C1CN1c1nc(N2CC2)nc(N2CC2)n1 [Triethylenemelamine]
normalised viability (BT-474; 10 nM): 111% | normalised viability (BT-474; 1000 nM): 126% | normalised viability (BT-474; 10000 nM): 130% | normalised viability (CAL-85-1 [1]; 3 nM): 104% | normalised viability (CAL-85-1 [1]; 30 nM): 87.6% | normalised viability (CAL-85-1 [1]; 100 nM): 108% | normalised viability (HCC1143 [2]; 10 nM): 97.8% | normalised viability (HCC1143 [2]; 1000 nM): 102% | normalised viability (HCC1143 [2]; 10000 nM): 93.1% | normalised viability (SK-BR-3; 10 nM): 105% | normalised viability (SK-BR-3; 1000 nM): 109% | normalised viability (SK-BR-3; 10000 nM): 105% | normalised viability (CAL-51 [3]; 3 nM): 108% | normalised viability (CAL-51 [3]; 30 nM): 106% | normalised viability (CAL-51 [3]; 100 nM): 97.4% | normalised viability (MDA-MB-231; 10 nM): 104% | normalised viability (MDA-MB-231; 1000 nM): 81.8% | normalised viability (MDA-MB-231; 10000 nM): 78.9% | normalised viability (MDA-MB-468; 10 nM): 112% | normalised viability (MDA-MB-468; 1000 nM): 112% | normalised viability (MDA-MB-468; 10000 nM): 107% | normalised viability (BT-549; 10 nM): 105% | normalised viability (BT-549; 1000 nM): 90.9% | normalised viability (BT-549; 10000 nM): 66.7% | normalised viability (HCC1937; 10 nM): 86.2% | normalised viability (HCC1937; 1000 nM): 72% | normalised viability (HCC1937; 10000 nM): 75.3% | normalised viability (HCC1599 [4]; 10 nM): 90.9% | normalised viability (HCC1599 [4]; 1000 nM): 92.9% | normalised viability (HCC1599 [4]; 10000 nM): 83.3% | normalised viability (HDQ-P1 [5]; 3 nM): 110% | normalised viability (HDQ-P1 [5]; 30 nM): 94.3% | normalised viability (HDQ-P1 [5]; 100 nM): 118% | normalised viability (DU-4475 [6]): 98.7% | normalised viability (CAL-85-1 [7]): 104% | normalised viability (CAL-148): 85.6% | normalised viability (CAL-51 [8]): 109% | normalised viability (HDQ-P1 [9]): 107% | normalised viability (MDA-MB-453 [10]): 113%

CC(=O)Nc1cccc(-n2c(=O)n(C3CC3)c(=O)c3c(Nc4ccc(I)cc4F)n(C)c(=O)c(C)c32)c1 [Trametinib]
drug sensitivity score (DU-4475 [11]): 27.2 | drug sensitivity score (HCC1143 [12]): 0 | drug sensitivity score (MFM-223): 1.88 | drug sensitivity score (MCF-10A): 20.3 | drug sensitivity score (MDA-MB-436): 0.966 | drug sensitivity score (HCC1599 [13]): 0 | drug sensitivity score (HDQ-P1 [14]): 10.8 | drug sensitivity score (MDA-MB-453 [15]): 0

Cc1cnc(NC(=O)Nc2cc(Br)c(C)cc2OC[C@@H]2CNCCO2)cn1 [Rabusertib]
drug sensitivity score (DU-4475 [11]): 0 | drug sensitivity score (HCC1143 [12]): 0 | drug sensitivity score (MFM-223): 0 | drug sensitivity score (MCF-10A): 0 | drug sensitivity score (MDA-MB-436): 0 | drug sensitivity score (HCC1599 [13]): 1.93 | drug sensitivity score (HDQ-P1 [14]): 0 | drug sensitivity score (MDA-MB-453 [15]): 2.1

CCCCC(=O)OCC(=O)[C@]1(O)Cc2c(O)c3c(c(O)c2[C@@H](O[C@H]2C[C@H](NC(=O)C(F)(F)F)[C@H](O)[C@H](C)O2)C1)C(=O)c1c(OC)cccc1C3=O [Valrubicin]
normalised viability (BT-474; 10 nM): 114% | normalised viability (BT-474; 1000 nM): 74.9% | normalised viability (BT-474; 10000 nM): 55.1% | normalised viability (CAL-85-1 [1]; 3 nM): 80.8% | normalised viability (CAL-85-1 [1]; 30 nM): 81.8% | normalised viability (CAL-85-1 [1]; 100 nM): 81.5% | normalised viability (HCC1143 [2]; 10 nM): 97.2% | normalised viability (HCC1143 [2]; 1000 nM): 47.7% | normalised viability (HCC1143 [2]; 10000 nM): 24.9% | normalised viability (SK-BR-3; 10 nM): 91.3% | normalised viability (SK-BR-3; 1000 nM): 25.9% | normalised viability (SK-BR-3; 10000 nM): 9.82% | normalised viability (CAL-51 [3]; 3 nM): 93.1% | normalised viability (CAL-51 [3]; 30 nM): 80% | normalised viability (CAL-51 [3]; 100 nM): 55.3% | normalised viability (MDA-MB-231; 10 nM): 84.8% | normalised viability (MDA-MB-231; 1000 nM): 45.6% | normalised viability (MDA-MB-231; 10000 nM): 19.4% | normalised viability (MDA-MB-468; 10 nM): 105% | normalised viability (MDA-MB-468; 1000 nM): 42% | normalised viability (MDA-MB-468; 10000 nM): 30.6% | normalised viability (BT-549; 10 nM): 82.4% | normalised viability (BT-549; 1000 nM): 65.1% | normalised viability (BT-549; 10000 nM): 47.5% | normalised viability (HCC1937; 10 nM): 96.5% | normalised viability (HCC1937; 1000 nM): 30.7% | normalised viability (HCC1937; 10000 nM): 19.7% | normalised viability (HCC1599 [4]; 10 nM): 79.7% | normalised viability (HCC1599 [4]; 1000 nM): 67.4% | normalised viability (HCC1599 [4]; 10000 nM): 40.2% | normalised viability (HDQ-P1 [5]; 3 nM): 96.2% | normalised viability (HDQ-P1 [5]; 30 nM): 97.4% | normalised viability (HDQ-P1 [5]; 100 nM): 84.7% | normalised viability (DU-4475 [6]): -1.61% | normalised viability (CAL-85-1 [7]): 31.2% | normalised viability (CAL-148): 0.71% | normalised viability (CAL-51 [8]): 6.83% | normalised viability (HDQ-P1 [9]): 45.8% | normalised viability (MDA-MB-453 [10]): 18.3% | drug sensitivity score (DU-4475 [11]): 11.5 | drug sensitivity score (HCC1143 [12]): 8.06 | drug sensitivity score (MFM-223): 1.28 | drug sensitivity score (MCF-10A): 8.72 | drug sensitivity score (MDA-MB-436): 9.03 | drug sensitivity score (HCC1599 [13]): 2.29 | drug sensitivity score (HDQ-P1 [14]): 5.59 | drug sensitivity score (MDA-MB-453 [15]): 2.44
